# Test results reported in ChEMBL document CHEMBL1127644, “Design of orally active, non-peptidic inhibitors of human leukocyte elastase” (J Med Chem, 1994).
# Activity calls are given as the source filed them. The rule behind the calls is not given here.
# Assays:
# Cricetinae gen. sp. [1] = assay: Inhibition of Human Leukocyte Elastase (HLE) induced lung hemorrhage in hamster at an oral dose of 20 mg/kg; […]; format: functional, organism-based; parameters: dose 20 mg/kg; conditions: Cricetulus griseus
# Cricetinae gen. sp. [2] = assay: Inhibition of Human Leukocyte Elastase (HLE) induced lung hemorrhage in hamster at an oral dose of 2.5 mg/kg; format: functional, Cricetulus griseus
# [3] = Bioavailability was evaluated in dog; format: ADME, organism-based, Canis lupus familiaris; conditions: in vivo, read-out: Bioavailabiility
# [4] = Bioavailability in rat; format: ADME, organism-based; conditions: in vivo, read-out: Bioavailabiility
# Cricetinae gen. sp. [5] = assay: The compound was evaluated for effective dose after oral dosing; format: functional, Cricetulus griseus
# [6] = Bioavailability was evaluated in hamster; format: ADME, organism-based; conditions: cricetinae, in vivo; read-out: Bioavailabiility
# Cricetinae gen. sp. [7] = assay: Inhibition of Human Leukocyte Elastase (HLE) induced lung hemorrhage in hamster at an oral dose of 20 mg/kg; format: functional, Cricetulus griseus
# [8] = Partition coefficient (logP); format: physicochemical; conditions: octanol/water
compound,measurement,setting,value
CC(C)C(NC(=O)Cn1c(-c2ccccc2)ccc(NC(=O)OCc2ccc(C(=O)O)cc2)c1=O)C(=O)C(F)(F)F (stereo not given),inhibition,Cricetinae gen. sp. [1],inactive
CC(C)C(NC(=O)Cn1c(-c2ccc(F)cc2)ncc(N)c1=O)C(=O)C(F)(F)F (stereo not given),inhibition in vivo at 2.5 mg/kg,Cricetinae gen. sp. [2],43%
same,bioavailability,[3],88%
same,bioavailability,[4],62%
same,ED50,Cricetinae gen. sp. [5],7.5 mg/kg
same,bioavailability,[6],77%
CC(C)C(NC(=O)Cn1c(-c2ccc(F)cc2)ncc(NC(=O)OCc2ccccc2)c1=O)C(=O)C(F)(F)F (stereo not given),inhibition in vivo at 20 mg/kg,Cricetinae gen. sp. [7],63%
COC(=O)Nc1cnc(-c2ccc(F)cc2)n(CC(=O)NC(C(=O)C(F)(F)F)C(C)C)c1=O (stereo not given),inhibition in vivo at 2.5 mg/kg,Cricetinae gen. sp. [2],39%
CC(C)C(NC(=O)Cn1c(-c2ccccc2)ccc(NC(=O)OCc2ccccc2)c1=O)C(=O)C(F)(F)F (stereo not given),logP,[8],> 4
same,inhibition,Cricetinae gen. sp. [1],inactive
